122 compounds from a melting point compilation (Tetko et al.) can be followed below.

The melting point is the temperature, or range, at which the solid turns liquid.

The compound `FC(F)(F)Cn1nnnc1S` registered a melting point of 122 to 124 °C.

Regarding `CN(C)S(=O)(=O)c1ccc(C(=O)CBr)cc1`, the melting point is 90 to 92 °C. Compound `Nc1nc(-c2cccc(C(F)(F)F)c2)cs1` showed a melting point of 85 to 87 °C. `O=C(NCCO)c1ccc(Br)cn1` yielded a melting point of 98 to 100 °C. In turn, `CNC(=O)c1cc(NC)ccn1` came in with a melting point of 114 to 116 °C.

The compound `COC(=O)C(N)c1ccc2ccccc2c1` (configuration not stated) yielded a melting point of 56 to 58 °C. To `Clc1ccc(-n2cccn2)cn1` belongs 107 to 109 °C; to `Cc1ccc(C(=O)c2c(N)sc3c2CCC3)cc1`, 153 to 157 °C; to `Nc1cccc(C(=O)N2CCCCC2CCO)c1` (configuration not stated), 129 to 131 °C.

Consider `Sc1nc(-c2cccnc2)no1`, for which the melting point is 179 to 181 °C.

The compound `O=C(Nc1ccc(F)cc1)c1ccc2c(c1)OCO2` yielded a melting point of 186 to 188 °C. Under `NS(=O)(=O)CCCF` stands 45 to 47 °C; under `Cc1cc2c(=O)[nH]cnc2s1`, 258 to 260 °C; under `c1ccc(COc2ccc3[nH]ncc3c2)cc1`, 175 to 177 °C. Under `CCOC(=O)c1c[nH]n(CC(=O)O)c1=N` stands 195 to 197 °C; under `O=C(O)CCc1nc(-c2cccs2)no1`, 108 to 110 °C; under `NC(Cc1ccc(O)cc1)c1nc2ccccc2[nH]1` (configuration not stated), 193 to 195 °C. To `ON=Cc1ccc(OCc2ccncc2)cc1` belongs 163 to 165 °C; to `CC(Cl)C(=O)N1CC(=O)Nc2ccccc21` (configuration not stated), 139 to 141 °C; to `O=C(O)CNc1ncnc2ccccc12`, 219 to 221 °C. Compound `CC1CCc2c(sc3nc(CCC(=O)O)[nH]c(=O)c23)C1` (configuration not stated) gave a melting point of 259 to 261 °C. To `Cc1cccc(C)c1CC(=O)O` belongs 117 to 119 °C; to `O=C(O)Cc1cnc2ccccc2c1`, 201 to 203 °C. Under `CCOC(=O)c1ccc(C=O)o1` stands 35 to 37 °C. To `CCc1nn(C)c2[nH]nc(N)c12` belongs 123 to 125 °C; to `Cc1cc(C)cc(-n2nc(C)cc2N)c1`, 95 to 97 °C; to `O=C(O)C=Cc1cn(-c2ccccc2)nc1-c1ccc2c(c1)OCCO2`, 250 to 252 °C. `CC(=O)NC1CCCNC1` (configuration not stated): the melting point lay in the range of 65 to 67 °C. To `CC(C)(C)OC(=O)NCCC(=O)NN` belongs 104 to 106 °C; to `O=C(O)C1CCCN1C(=O)c1ccc(Cl)s1` (configuration not stated), 127 to 129 °C; to `O=C(O)c1cc(COc2c(Cl)cccc2Cl)on1`, 159 to 161 °C. To `CS(=O)(=O)c1ccc(C(N)=NO)cc1` belongs 196 to 198 °C; to `O=S(=O)(Cl)c1c(Cl)ccnc1Cl`, 79 to 81 °C; to `CC(=O)N1CCC(CCl)CC1`, 48 to 50 °C. `NNc1ccc(S(=O)(=O)Nc2ccccc2)cc1[N+](=O)[O-]` showed a melting point of 207 to 209 °C. With `Cc1cc(O)cc(=O)n1CC(=O)O`, the melting point is 248 to 250 °C. On to `c1cncc(NCc2ccsc2)c1`, for which the melting point is 62 to 64 °C. `Cc1c[nH]c(=O)n1-c1cccc(N)c1` had a melting point of 232 to 234 °C.

Compound `CCOC(=O)c1cnc2ccc(C)cc2c1Cl` displayed a melting point of 62 to 64 °C.

As for `O=[N+]([O-])c1cnc(Cl)nc1NC1CC1`, the melting point was in the range of 114 to 116 °C. Under `COc1ccc(NS(C)(=O)=O)c(N)c1` stands 144 to 146 °C; under `CN1CCc2ccc(N)cc2C1=O`, 127 to 129 °C.

Compound `O=C(NCc1ccc(Cl)cc1)n1ccnc1` yielded a melting point of 94 to 96 °C. To `Cc1ccc(S(=O)(=O)N2CCCCC2C(=O)O)cc1` (configuration not stated) belongs 100 to 102 °C; to `Cc1ccsc1-c1nsc(N)n1`, 165 to 167 °C. `Cc1ccc(Nc2nc(N)nc(CCl)n2)cc1`: the melting point lay within 158 to 160 °C. Under `COC(=O)c1cc(C(=O)OC)[nH]n1` stands 149 to 151 °C; under `O=C(O)c1ccc(Cl)c(S(=O)(=O)N2CCOCC2)c1`, 176 to 178 °C. Under `CCc1nc(N)sc1C(=O)OC` stands 181 to 183 °C; under `CC1=NN(C)C(=O)C1`, 109 to 111 °C.

Regarding `CS(=O)Cc1c(C(=O)O)oc2ccccc12` (configuration not stated), the melting point fell in the range of 177 to 179 °C. Under `NC(=S)Nc1ccc(OC(F)(F)F)cc1` stands 136 to 138 °C; under `CC(C)CNC(=O)NC(=O)CCl`, 105 to 107 °C; under `C=CCN1C(=O)C(=NN)c2ccccc21`, 129 to 132 °C.

For the compound `CN(C(=O)c1ccc(Cl)c(N)c1)c1ccccc1`, the melting point lay within 120 to 122 °C.

Compound `NNC(=O)C1CC1` gave a melting point of 92 to 94 °C. For the compound `CC1(C)Cc2ccccc2C1=O`, the melting point lay in the range of 41 to 43 °C. To `Cc1ccc(S(=O)(=O)N2CCCCC2C)cc1C(=O)O` (configuration not stated) belongs 149 to 151 °C; to `Clc1cccc2c(CBr)csc12`, 84 to 86 °C.

Compound `OCCOc1ccc(Br)cn1` had a melting point of 51 to 53 °C. Under `O=C(O)c1cccnc1OCC(F)(F)F` stands 122 to 124 °C; under `COC(=O)c1ccc(C)c(NC(=O)OCC(F)(F)F)c1`, 121 to 123 °C. The compound `C#CCNc1nccs1` displayed a melting point of 65 to 67 °C.

For the compound `Cc1ccc(N)c(OCc2ccccc2)c1`, the melting point lay within 68 to 70 °C. To `CN(C(=O)c1ccccc1C(=O)O)C1CCCCC1` belongs 144 to 146 °C. In turn, `NC(=O)Nc1ccc(N)cc1` showed a melting point of 155 to 157 °C. To `Cn1c(S)nnc1C1CC1` belongs 180 to 182 °C; to `O=C(O)C=Cc1ccc(S(=O)(=O)N2CCOCC2)cc1`, 249 to 251 °C; to `Cc1nn(Cc2ccccc2)c(Cl)c1CCl`, 53 to 55 °C. To `Cc1c(S(N)(=O)=O)sc2c(Cl)cccc12` belongs 261 to 263 °C. Under `COc1ccc2c(-c3cccnc3)cc(S)nc2c1` stands 269 to 271 °C; under `O=C(O)C1CCCCN1C(=O)C1CCCC1` (configuration not stated), 121 to 123 °C. On to `CN(C)C(=O)c1ccc(C=O)[nH]1`, for which the melting point was 165 to 167 °C. Under `O=C(O)CCc1ncc(-c2ccc(F)cc2F)o1` stands 169 to 171 °C; under `COc1ccc(CCNC(=O)c2ccccc2N)cc1`, 80 to 82 °C. Under `COc1coc(CO)cc1=O` stands 163 to 165 °C; under `CC(=O)Oc1cc(C)ccc1C(=O)O`, 139 to 141 °C; under `O=C(O)C(=O)C=Cc1cccs1`, 114 to 116 °C. Under `Cc1ccc(CNC(=O)c2ccccc2N)cc1` stands 140 to 142 °C; under `Nc1ccc(N2CCOCC2)c(S(=O)(=O)Nc2ccc(Cl)cc2)c1`, 236 to 238 °C. For `C#CCNC(=O)c1cccc(C#N)c1`, the melting point lay in the range of 132 to 134 °C.

For `NCCC(=O)N1CCN(c2ccccn2)CC1`, the melting point lay in the range of 76 to 78 °C. Regarding `Cc1sc(N)c(C(N)=O)c1C`, the melting point was in the range of 179 to 181 °C.

In the case of `CCOCCNC(=O)c1ccc(Br)cc1`, the melting point was in the range of 99 to 101 °C. To `Nc1nsc(N2CCNCC2)n1` belongs 193 to 195 °C. Compound `Cc1cccc2[nH]cc(CCN)c12` returned a melting point of 108 to 110 °C. Regarding `CC(C)(O)CN1CCN(C(=O)OC(C)(C)C)CC1`, the melting point was in the range of 33 to 35 °C. Under `CCc1ccc2c(c1)C(=O)C(=O)N2` stands 114 to 116 °C; under `O=[N+]([O-])c1ccc(NCc2ccccn2)cc1`, 119 to 121 °C.

As for `O=C(O)C1CCCN(C2=NS(=O)(=O)c3ccccc32)C1` (configuration not stated), the melting point lay in the range of 205 to 207 °C. Under `Nc1cccc(N2CCCNC2=O)c1` stands 229 to 231 °C. To `C=CC(=O)Nc1ccc(OCC)c(CO)c1` belongs 129 to 131 °C; to `CC(C)(c1ccccc1)c1nnc(N)o1`, 196 to 198 °C; to `COc1cc(/C=C(/C#N)C(=O)O)ccc1O`, 199 to 201 °C. Under `CC(C)(C)c1ccc(Oc2ccc(C=O)cc2[N+](=O)[O-])cc1` stands 156 to 158 °C. On to `Nc1nc(-c2cccc(Br)c2)cs1`, for which the melting point fell in the range of 121 to 125 °C. `Cc1nc(C)n(-c2ccc(C(=O)O)cc2)n1` came in with a melting point of 289 to 291 °C. Under `CC(C)c1nn(-c2ccc(Br)cc2)cc1C=O` stands 99 to 101 °C; under `CC1Oc2c(cccc2C(=O)O)NC1=O` (configuration not stated), 281 to 283 °C.

In turn, `Cc1ccc(NC(=O)CCl)cc1S(=O)(=O)N1CCCCCC1` came in with a melting point of 74 to 76 °C. The compound `Nc1ncc(-c2ccc(Br)cc2)[nH]1` yielded a melting point of 194 to 196 °C. On to `Cc1c(N)cccc1C(N)=O`, for which the melting point lay within 173 to 175 °C.

For `Cc1cc(N2CCCC2=O)ccc1S(=O)(=O)Cl`, the melting point lay within 104 to 106 °C. To `NC1CN(S(=O)(=O)c2ccc3c(c2)OCCO3)C1` belongs 124 to 126 °C; to `COc1ccc(S(=O)(=O)N2CCN(C)CC2)cc1N`, 107 to 109 °C; to `O=C(Nc1ccccc1C(=O)O)c1ccccc1`, 178 to 182 °C. As to `NC(=O)CCOc1ccc(N)cc1`, the melting point is 110 to 112 °C.

The compound `S=C1Cc2ccccc2N1` registered a melting point of 146 to 148 °C. To `FC(F)(F)c1ccc2sc(Cl)nc2c1` belongs 57 to 59 °C; to `CNC(=O)COc1ccc(C(C)O)cc1` (configuration not stated), 84 to 86 °C. Under `COc1cc(C(=O)O)ccc1OCc1csc(C)n1` stands 172 to 174 °C. `NC(=NO)c1cccc(F)c1` yielded a melting point of 73 to 75 °C. Under `O=C(O)c1cnn(-c2ccc(Br)cc2)c1` stands 254 to 256 °C; under `CC(C)(C)OC(=O)N1CCN(S(=O)(=O)Cl)CC1`, 148 to 150 °C; under `O=C(O)c1cccc(OCc2ccc(F)cc2)c1`, 143 to 145 °C. `Ic1ccc(OCc2ccccn2)cc1` yielded a melting point of 74 to 76 °C. Under `COc1ccc(OC)c(CNCCO)c1` stands 91 to 93 °C; under `CN(Cc1nn[nH]n1)C(=O)c1ccccc1`, 136 to 138 °C; under `COc1ccc(NCCCC(=O)O)cc1`, 204 to 206 °C. Under `CC(C)(C)c1ccc(C(=O)O)s1` stands 119 to 121 °C; under `CC(C)(C#N)Cc1ccccc1`, 47 to 49 °C.

Take `O=C(O)C1(c2ccc(Cl)c(Cl)c2)CCC1`: the melting point was 116 to 118 °C.
